Experiment [1] deals with 5-HT receptors on NCB20 cells. The settings on record: Berry-Kravis and Dawson, 1983; read-out: affinity of [3H]-5-HT; cited from earlier work.
In experiment [2] the target is 5-HT receptor present in glial membranes. The conditions noted are these: Fillion et al., 1980; property shared with hp78a; read-out: equilibrium dissociation constant Kd; cited from earlier work.
A further experiment concerns the target T1, human 5-HT1F receptor (Homo sapiens, UniProt P30939).
T1 sequence (P30939 1-366): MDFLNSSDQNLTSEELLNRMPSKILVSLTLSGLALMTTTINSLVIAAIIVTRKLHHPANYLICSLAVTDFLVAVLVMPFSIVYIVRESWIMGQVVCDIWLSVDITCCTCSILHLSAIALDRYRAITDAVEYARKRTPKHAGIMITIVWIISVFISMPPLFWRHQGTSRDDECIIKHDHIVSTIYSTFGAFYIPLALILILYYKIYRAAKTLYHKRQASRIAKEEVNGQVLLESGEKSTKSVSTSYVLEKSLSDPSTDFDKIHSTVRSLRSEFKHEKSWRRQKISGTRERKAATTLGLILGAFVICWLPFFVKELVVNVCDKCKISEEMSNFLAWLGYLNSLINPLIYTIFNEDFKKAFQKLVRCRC
The settings on record: cited from earlier work.

A further experiment has as its target human 5-HT1E receptor (Homo sapiens, UniProt P28566). The conditions noted are these: cited from earlier work.
The target in experiment [3] is T2, human 5-HT4B receptor (Homo sapiens, UniProt P34969).
T2 construct: The entire coding region of the human 5-HT4B receptor (1338 bp); expressed in transfected cells
Description: cAMP formation in intact, transiently transfected Cos-7 cells. The format is cell-based. A general note: Changes in cAMP serve as a functional read-out for many G protein-coupled receptors.

The target in experiment [4] is T2, human 5-HT4B receptor. Description: cell-based. The format is cell-based.

T2 sequence (P34969 1-445 isoform P34969-2): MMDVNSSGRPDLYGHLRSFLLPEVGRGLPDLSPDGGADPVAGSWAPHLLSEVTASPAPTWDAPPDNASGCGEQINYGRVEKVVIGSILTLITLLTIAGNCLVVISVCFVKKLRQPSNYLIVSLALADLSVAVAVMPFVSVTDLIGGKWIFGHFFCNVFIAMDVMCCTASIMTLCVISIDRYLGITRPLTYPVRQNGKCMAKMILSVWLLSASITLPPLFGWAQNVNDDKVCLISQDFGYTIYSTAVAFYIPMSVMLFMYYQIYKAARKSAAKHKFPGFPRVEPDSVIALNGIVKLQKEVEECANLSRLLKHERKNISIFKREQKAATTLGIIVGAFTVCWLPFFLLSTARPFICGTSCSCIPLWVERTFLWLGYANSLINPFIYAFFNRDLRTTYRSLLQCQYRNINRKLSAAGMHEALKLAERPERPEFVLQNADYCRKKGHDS
Chain of human 5-HT1E receptor (P28566 whole entry): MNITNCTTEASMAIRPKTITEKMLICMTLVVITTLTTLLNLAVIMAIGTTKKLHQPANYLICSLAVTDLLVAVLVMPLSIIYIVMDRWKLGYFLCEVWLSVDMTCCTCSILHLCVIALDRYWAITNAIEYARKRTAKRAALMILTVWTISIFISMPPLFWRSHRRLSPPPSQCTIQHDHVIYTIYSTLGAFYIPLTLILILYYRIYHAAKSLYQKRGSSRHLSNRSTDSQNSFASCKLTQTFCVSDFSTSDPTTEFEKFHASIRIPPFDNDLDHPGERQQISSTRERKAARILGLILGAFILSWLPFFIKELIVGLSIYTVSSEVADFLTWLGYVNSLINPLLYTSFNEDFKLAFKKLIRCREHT

Turning to `NCCc1c[nH]c2ccc(O)cc12` [[^3H]5-HT], the Kd in experiment [1] was approximately 0.2 µM; in experiment [2], 0.01 µM.
`NCCc1c[nH]c2ccc(C(N)=O)cc12` [5-CT, 5-Carboxamidotryptamine]: at human 5-HT1F receptor, the Ki is more than 0.7 µM. Further, the inhibitory constant (Ki) at human 5-HT1E receptor was more than 0.7 µM. For the same molecule, the “agonist activity” value on human 5-HT4B receptor [3] is recorded as “potent agonists”. On human 5-HT4B receptor [4], the “INTRINSIC ACTIVITY” value is listed as “AGONIST (key: AGONIST indicates that the maximal response to the drug was at least 80% of the maximum response obtained with 5-HT)” and the “functional character” value is “potent agonists”. In addition, the Emax on human 5-HT4B receptor [4] (L-M(TK-), read-out: Emax* (% 5-HT RESPONSE)) was found to be 110 ± 19%.

As usually defined, the Ki is the dissociation constant of the complex between target and ligand, obtained from inhibition or displacement. By Emax is commonly meant the size of the effect at its maximum, as opposed to the concentration needed.

These data come from patent US6432655B1, “Method of obtaining compositions” (Synaptic Pharmaceutical Corporation, priority 1992, dated 2002).
